Assay results published in ChEMBL document CHEMBL1201862, “PubChem BioAssay data set” (2004).
Activity calls are given as the source filed them.

Key:
[1] = Late stage assay provider results from the probe development effort to identify selective inhibitors of heat shock protein 90 (HSP90): Absorbance-based cell proliferation assay in SKBR3 cells.; type: functional; details: SK-BR-3
[2] = Late stage assay provider results from the probe development effort to identify selective inhibitors of heat shock protein 90 (HSP90): Absorbance-based cell proliferation assay in MCF7 cells.; type: functional
[3] = Intein inhibitors as potential Tuberculosis drugs, a cytotoxicity screen. [Related pubchem assays (depositor defined):AID2221, AID2223, AID434968, AID435010, AID449749, AID449750, AID489010]; type: functional
Protein RecA = biological target: T1, Protein RecA (Mycobacterium tuberculosis, UniProt P9WHJ3); experiment: Fluorescence Cell-Free Homogeneous Dose Retest to Identify Inhibitors of RecA-Intein Splicing Activity. [Related pubchem assays (depositor defined):AID2097, AID2223, AID489010, AID492950]; type: functional
T1 sequence (P9WHJ3 whole entry): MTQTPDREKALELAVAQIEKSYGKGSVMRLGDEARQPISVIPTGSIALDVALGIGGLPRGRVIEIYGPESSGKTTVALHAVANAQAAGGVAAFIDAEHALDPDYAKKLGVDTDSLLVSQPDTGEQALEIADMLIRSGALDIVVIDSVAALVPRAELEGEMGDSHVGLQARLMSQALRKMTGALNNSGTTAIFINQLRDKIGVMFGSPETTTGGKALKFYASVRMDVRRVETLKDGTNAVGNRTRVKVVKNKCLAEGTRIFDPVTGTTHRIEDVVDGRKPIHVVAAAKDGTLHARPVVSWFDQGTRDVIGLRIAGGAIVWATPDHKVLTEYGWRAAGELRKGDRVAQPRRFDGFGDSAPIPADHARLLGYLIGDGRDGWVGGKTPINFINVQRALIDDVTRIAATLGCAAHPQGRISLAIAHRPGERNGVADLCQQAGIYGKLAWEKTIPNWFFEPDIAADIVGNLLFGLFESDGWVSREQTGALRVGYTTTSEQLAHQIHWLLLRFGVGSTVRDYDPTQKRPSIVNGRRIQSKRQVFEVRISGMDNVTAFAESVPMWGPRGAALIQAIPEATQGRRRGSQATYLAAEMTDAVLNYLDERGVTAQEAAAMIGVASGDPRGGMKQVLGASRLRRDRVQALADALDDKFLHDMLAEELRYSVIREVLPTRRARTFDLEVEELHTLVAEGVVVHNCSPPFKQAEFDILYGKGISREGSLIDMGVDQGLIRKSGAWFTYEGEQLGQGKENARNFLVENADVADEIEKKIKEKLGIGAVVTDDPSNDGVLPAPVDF

[4] = Luminescent dose response cell-based high throughput screening assay for inhibitors of the Janus kinase 2 mutant JAK2V617F. [Related pubchem assays: 1446 (Primary screen.), 1521 (Confirmation assay.), 1486 (Counter screen.)]; type: functional
[5] = biological target: T2, Replicative DNA helicase DnaB (Mycobacterium tuberculosis, UniProt P9WMR3); experiment: DnaB intein splicing inhibitors, dose response, biochemical, cell-free fluorescence (AID 449749); type: functional
T2 sequence (P9WMR3 whole entry): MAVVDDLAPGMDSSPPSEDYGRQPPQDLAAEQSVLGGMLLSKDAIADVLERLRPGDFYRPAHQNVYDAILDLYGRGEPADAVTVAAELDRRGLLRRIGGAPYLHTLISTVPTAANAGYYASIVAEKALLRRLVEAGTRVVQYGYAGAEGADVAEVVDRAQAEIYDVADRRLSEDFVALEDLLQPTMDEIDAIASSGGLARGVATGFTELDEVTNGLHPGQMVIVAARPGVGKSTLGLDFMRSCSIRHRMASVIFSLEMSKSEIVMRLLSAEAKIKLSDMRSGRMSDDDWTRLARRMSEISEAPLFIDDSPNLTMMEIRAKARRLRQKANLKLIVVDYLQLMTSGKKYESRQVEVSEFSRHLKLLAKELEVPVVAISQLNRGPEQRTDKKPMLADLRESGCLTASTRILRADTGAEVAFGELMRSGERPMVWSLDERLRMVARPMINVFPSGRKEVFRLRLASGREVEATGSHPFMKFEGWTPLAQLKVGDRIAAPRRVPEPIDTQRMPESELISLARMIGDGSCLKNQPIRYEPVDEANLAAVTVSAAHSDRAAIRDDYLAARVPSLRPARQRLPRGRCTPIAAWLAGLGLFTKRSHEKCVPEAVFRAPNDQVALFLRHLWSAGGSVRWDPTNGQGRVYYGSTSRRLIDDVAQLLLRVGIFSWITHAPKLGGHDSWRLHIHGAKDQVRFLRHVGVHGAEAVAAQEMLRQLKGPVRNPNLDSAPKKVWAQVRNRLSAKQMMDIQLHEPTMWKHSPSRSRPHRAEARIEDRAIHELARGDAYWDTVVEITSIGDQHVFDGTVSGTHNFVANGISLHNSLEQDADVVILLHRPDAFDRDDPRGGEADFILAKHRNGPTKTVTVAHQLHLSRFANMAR

[6] = growth suppression of beta-catenin-knockout colon cells, dose response, cell-based, HCT116, human colon tumor (AID 1045); type: functional;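 further: HCT116 colon tumor cells with beta catenin knocked out; cells exposed to compound for 60 hours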
BJ = experiment: cytotoxicity toward Ras-transformed BJeLR fibroblasts, dose response, cell-based, alamar blue fluorescence, cherrypicked samples (AID 2631); type: functional; details: Homo sapiens;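 further: confirmatory dose-response assay in RAS-dependent BJ fibroblasts engineered with TERT, LT and ST, with cytotoxicity read by fluorescence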
[7] = growth suppression of PTEN-null colon cells, dose response, cell-based, HCT116 PTEN knockout (AID 1047); type: functional;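 further: HCT116 colon tumor cells with PTEN knocked out; cells exposed to compound for 60 hours before readout; potency for loss of cell viability measured by luminescence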
[8] = cytotoxicity in OVCAR8 ovarian cancer cells, dose response, PAX8 project, cell-based, plate reader, dry powder samples (AID 743197); type: functional; details: OVCAR-8
[9] = NIH:OVCAR-3 ovarian cancer cell cytotoxicity, dose response, PAX8 inhibitor project, plate reader, dry powder samples (AID 743044); type: functional, cell-based
[10] = IGROV1 ovarian cancer cell cytotoxicity, dose response, PAX8 inhibitor project, plate reader, dry powder samples (AID 743043); type: functional, cell-based; details: IGROV-1
Paired box protein Pax-8 = Paired box protein Pax-8 (Homo sapiens, UniProt Q06710); experiment: inhibitors of PAX8-driven TPO luciferase reporter, dose response, RMG-I cells, cherry-pick (AID 687027); type: functional, cell-based;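 further: luciferase reporter driven by Pax8 target thyroperoxidase promoter measured by SteadyGlo luminescence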
[11] = IOSE-T80 ovarian epithelial cell cytotoxicity, dose response, cytotoxicity control for PAX8 inhibitor project, plate reader, dry powder samples (AID 743045); type: functional, cell-based
[12] = A2780 ovarian cancer cell cytotoxicity, dose response, cytotoxicity control, plate reader, dry powder samples (AID 743046); type: functional, cell-based
[13] = P. falciparum Dd2 blood-stage growth inhibition, dose response, SYBR Green fluorescence, erythrocytes, dry powder, set 2 (AID 1159574); type: functional, cell-based
[14] = non-specific cell cytotoxicity, dose response, cytotoxicity control for PAX8 inhibitor project, plate reader, dry powder samples (AID 743021); type: functional, cell-based
cells [15] = type: functional, cell-based
[16] = biological target: T3, Nuclear receptor subfamily 0 group B member 1 (Homo sapiens, UniProt P51843); type: functional, cell-based;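 further: HEK293T cells transfected with SF-1 and DAX-1 plus StAR promoter luciferase reporter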
T3 sequence (P51843 whole entry): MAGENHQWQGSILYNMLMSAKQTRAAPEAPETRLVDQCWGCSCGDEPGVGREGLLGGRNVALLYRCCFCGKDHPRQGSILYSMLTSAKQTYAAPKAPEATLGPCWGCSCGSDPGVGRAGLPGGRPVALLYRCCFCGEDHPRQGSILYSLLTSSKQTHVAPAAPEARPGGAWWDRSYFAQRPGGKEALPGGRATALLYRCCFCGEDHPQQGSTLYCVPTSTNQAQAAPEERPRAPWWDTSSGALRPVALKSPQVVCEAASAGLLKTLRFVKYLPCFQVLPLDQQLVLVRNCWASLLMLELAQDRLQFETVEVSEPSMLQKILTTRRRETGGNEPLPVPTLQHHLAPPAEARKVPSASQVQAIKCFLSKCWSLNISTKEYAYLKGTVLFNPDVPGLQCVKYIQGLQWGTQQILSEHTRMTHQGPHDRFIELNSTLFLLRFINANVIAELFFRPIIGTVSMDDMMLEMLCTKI

[17] = biological target: DNA dC->dU-editing enzyme APOBEC-3A (Homo sapiens, UniProt P31941); experiment: APOBEC3A DNA deaminase inhibitors, dose response, biochemical (AID 504722); type: functional
[18] = biological target: DNA dC->dU-editing enzyme APOBEC-3G (Homo sapiens, UniProt Q9HC16); experiment: Dose Response confirmation of small molecule APOBEC3G DNA Deaminase Inhibitors via a fluorescence-based single-stranded DNA deaminase assay. [Related pubchem assays (depositor defined):AID493012, AID493028]; type: functional
[19] = human group III sPLA2 inhibitors, dose response, biochemical, QFRET, IC50 (AID 743457);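 further: green fluorescence rise as the enzyme cleaves BODIPY PC-A2 in liposomes; potency for inhibition of the enzyme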
cells [20] = type: functional
[21] = THP-1 cell cytotoxicity, dose response, cytotoxicity control for non-replicating M. tuberculosis project (AID 489025); type: functional
cells [22] = type: functional, cell-based; details: HEK-CNG
Galanin receptor type 3 = Galanin receptor type 3 (Homo sapiens, UniProt O60755); experiment: Fluorescence-based cell-based primary high throughput dose response assay to identify antagonists of the Galanin Receptor 3 (GalR3).; type: functional
Galanin receptor type 3, sequence (O60755 whole entry): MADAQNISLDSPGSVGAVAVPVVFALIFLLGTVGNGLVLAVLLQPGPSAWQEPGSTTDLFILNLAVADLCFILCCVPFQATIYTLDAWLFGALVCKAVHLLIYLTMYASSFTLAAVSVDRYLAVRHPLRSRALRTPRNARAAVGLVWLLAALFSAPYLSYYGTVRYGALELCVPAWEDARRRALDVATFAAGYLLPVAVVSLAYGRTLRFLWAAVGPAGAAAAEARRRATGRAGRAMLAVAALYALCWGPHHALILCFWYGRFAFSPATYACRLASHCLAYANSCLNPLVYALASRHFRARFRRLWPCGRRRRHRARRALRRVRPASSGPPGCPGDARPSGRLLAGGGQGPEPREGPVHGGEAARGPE

Paired box protein Pax-8, sequence (Q06710 whole entry): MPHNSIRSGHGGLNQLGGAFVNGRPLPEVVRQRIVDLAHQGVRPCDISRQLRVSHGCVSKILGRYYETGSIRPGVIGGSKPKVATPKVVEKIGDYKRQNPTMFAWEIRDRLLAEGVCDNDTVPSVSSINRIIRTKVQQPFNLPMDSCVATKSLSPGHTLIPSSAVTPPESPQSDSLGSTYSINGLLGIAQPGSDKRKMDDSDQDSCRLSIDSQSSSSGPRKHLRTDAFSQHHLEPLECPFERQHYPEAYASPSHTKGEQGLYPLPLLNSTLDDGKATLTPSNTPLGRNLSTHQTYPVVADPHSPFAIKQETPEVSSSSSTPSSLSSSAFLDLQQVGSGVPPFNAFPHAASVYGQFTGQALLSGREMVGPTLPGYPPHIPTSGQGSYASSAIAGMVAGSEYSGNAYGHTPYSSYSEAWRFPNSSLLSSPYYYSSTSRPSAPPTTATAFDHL
DNA dC->dU-editing enzyme APOBEC-3A, sequence (P31941 whole entry): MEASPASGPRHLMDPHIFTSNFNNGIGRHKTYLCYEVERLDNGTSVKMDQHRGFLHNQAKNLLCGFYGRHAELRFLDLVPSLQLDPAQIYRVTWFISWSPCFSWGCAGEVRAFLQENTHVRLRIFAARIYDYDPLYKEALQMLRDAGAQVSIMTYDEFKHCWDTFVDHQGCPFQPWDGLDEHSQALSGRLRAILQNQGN
DNA dC->dU-editing enzyme APOBEC-3G, sequence (Q9HC16 whole entry): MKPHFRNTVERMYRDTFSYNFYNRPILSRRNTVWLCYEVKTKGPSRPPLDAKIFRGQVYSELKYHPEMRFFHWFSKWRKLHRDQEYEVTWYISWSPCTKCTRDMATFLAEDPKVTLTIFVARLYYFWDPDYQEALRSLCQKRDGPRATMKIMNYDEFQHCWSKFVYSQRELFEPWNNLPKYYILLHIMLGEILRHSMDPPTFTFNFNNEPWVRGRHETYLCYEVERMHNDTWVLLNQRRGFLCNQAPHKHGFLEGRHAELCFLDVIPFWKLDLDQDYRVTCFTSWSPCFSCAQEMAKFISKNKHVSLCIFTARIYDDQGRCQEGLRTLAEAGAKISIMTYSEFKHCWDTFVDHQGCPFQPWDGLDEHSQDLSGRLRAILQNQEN

## COc1ccc2cc(Br)c(=O)oc2c1
[1]
  IC50: > 100 µM (inactive)
[2]
  IC50: > 100 µM (inactive)

## COc1cccc(N(C(=O)CCl)C(C(=O)NCCc2ccccc2)c2cccs2)c1 (stereo unspecified)
[3]
  CC50: 0.2 µM (active)
Protein RecA
  EC50: 0.329 µM (active)
[4]
  IC50: 0.581 µM (active)
[5]
  AC50: 2.11 µM (active)
[6]
  EC50: 1.48 µM (active)
BJ
  EC50: 3.95 µM (active)
[7]
  EC50: 1.59 µM (active)

## CCOc1cn(C)c(C(=O)Nc2ccccc2)cc1=O
[1]
  IC50: > 100 µM (inactive)
[2]
  IC50: > 100 µM (inactive)

## Cc1ccc(S(=O)(=O)N(C)C[C@@H]2Oc3ccc(NC(=O)Nc4ccc(C(F)(F)F)cc4)cc3CC(=O)N([C@@H](C)CO)C[C@@H]2C)cc1
[8]
  AC50: 5.91 µM (active)
[9]
  AC50: 0.584 µM (active)
[10]
  AC50: 1.16 µM (active)
Paired box protein Pax-8
  AC50: 0.799 µM (active)
[11]
  AC50: 0.483 µM (active)
[12]
  AC50: 3.88 µM (active)

## COc1ccc(NC(=O)N2CCCCN3[C@H](C2)[C@@H](c2ccc(C#Cc4ccccc4)cc2)[C@@H]3CO)cc1
[8]
  AC50: 39.7 µM (active)
[13]
  AC50: 2.1 µM (active)
[9]
  AC50: 58.4 µM (active)
[14]
  AC50: 29.7 µM (active)
Paired box protein Pax-8
  AC50: 5.67 µM (active)

## COc1ccc(C=C2CCc3ccccc3C2=O)cc1
Cells [15]
  IC50: > 67.6 µM (inactive)
[16]
  IC50: > 67.6 µM (inactive)

## CCn1c(S)nnc1-c1cc2c(C(F)(F)F)nn(C)c2s1
[17]
  IC50: > 100 µM (inactive)
[18]
  IC50: 3.06 µM (active)
[19]
  IC50: > 122 µM (inactive)

## CC(C)(C)NC(=O)COC(=O)c1snc(C(=O)NC2CCCCC2)c1N
Cells [20]
  IC50: 4.33 µM (active)
[21]
  CC50: > 40 µM (active)
Cells [22]
  EC50: > 29.9 µM (inactive)
Galanin receptor type 3
  IC50: 1.95 µM (active)
